Experimental data published in patent US10047096B2, “Substituted pyridobenzodiazepinone-derivatives and use thereof” (Bayer Pharma Aktiengesellschaft, priority 2014, dated 2018).
Structures can show the parent of a compound that is named as a salt.

target: human PDGFRβ (Homo sapiens (Human), UniProt P09619); experiment: PDGFRβ kinase assay (PDGFRβ-HTRF); type: biochemical; conditions: not given
Procedure: The PDGFRβ-inhibitory activity of the inventive compounds was determined in the PDGFRβ-HTRF assay described hereinafter.
The kinase used was a recombinant fusion protein composed of N-terminal GST and a C-terminal fragment of human PDGFRβ (amino acids R561-L1106), expressed in baculovirus-infected insect cells (Sf9) and purified by affinity chromatography (from ProQinase GmbH, Freiburg, Germany). The substrate used for the kinase reaction was biotinylated poly-Glu,Tyr (4:1) copolymer (from Cisbio Bioassays, Codolet, France).
For the assay, 50 nl of a 100-fold concentrated solution of the test substance in DMSO was pipetted into a black “low-volume 384 well” microtitre plate (from Greiner Bio-One, Frickenhausen, Germany), then 2 μl of a solution of PDGFRβ in assay buffer [50 mM HEPES/NaOH pH 7.5, 10 mM MgCl2, 2.5 mM dithiothreitol, 0.01% (v/v) Triton-X100 (from Sigma)] was added and the mixture was incubated for 15 min, in order to enable preliminary binding of the substance to the enzyme before the kinase reaction. […] The resulting mixture was incubated at 22° C. for 1 h to allow formation of a complex of the biotinylated phosphorylated substrate and the detection reagents.
Subsequently, the amount of the phosphorylated substrate was evaluated by measuring the resonance energy transfer from the PT66-Eu chelate to the streptavidin-XL665. […] The IC50 values were calculated by a 4-parameter fit.

human PDGFRβ, sequence (P09619 561-1106): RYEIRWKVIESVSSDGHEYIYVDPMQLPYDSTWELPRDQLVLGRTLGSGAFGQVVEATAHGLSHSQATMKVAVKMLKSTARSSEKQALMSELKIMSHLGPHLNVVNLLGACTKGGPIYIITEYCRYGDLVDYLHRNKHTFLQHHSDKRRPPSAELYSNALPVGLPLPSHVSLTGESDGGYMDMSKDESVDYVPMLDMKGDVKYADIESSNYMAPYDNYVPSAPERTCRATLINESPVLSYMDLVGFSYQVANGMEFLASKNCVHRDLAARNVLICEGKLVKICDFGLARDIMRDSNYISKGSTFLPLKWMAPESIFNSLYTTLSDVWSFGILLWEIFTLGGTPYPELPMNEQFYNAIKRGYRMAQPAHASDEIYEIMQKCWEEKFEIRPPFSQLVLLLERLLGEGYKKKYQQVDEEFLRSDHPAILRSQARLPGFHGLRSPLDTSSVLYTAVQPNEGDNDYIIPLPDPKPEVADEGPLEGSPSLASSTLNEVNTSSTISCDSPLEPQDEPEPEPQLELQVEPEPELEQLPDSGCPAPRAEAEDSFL

SMILES | IC50
Cc1ccc(O)cc1Nc1ccnc2c1C(=O)Nc1cc(CN3CCOCC3)ccc1N2 [Example 41, 4-[(5-Hydroxy-2-methylphenyl)amino]-8-(morpholin-4-ylmethyl)-6,11-dihydro-5H-pyrido[2,3-b][1,5]benzodiazepin-5-one formic acid salt] | 3.72 nM

same assay, conditions: 10 μM ATP; some mean values from multiple determinations

SMILES | IC50
N#Cc1ccc2c(c1)NC(=O)c1c(Nc3cc(O)c(Cl)cc3F)ccnc1N2 [Example 37, 4-[(4-chloro-2-fluoro-5-hydroxyphenyl)amino]-5-oxo-6,11-dihydro-5H-pyrido[2,3-b][1,5]benzodiazepine-8-carbonitrile] | 4.6 nM
N#Cc1ccc2c(c1)NC(=O)c1c(Nc3cc(O)c(F)cc3F)ccnc1N2 [Example 38, 4-[(2,4-Difluoro-5-hydroxyphenyl)amino]-5-oxo-6,11-dihydro-5H-pyrido[2,3-b][1,5]benzodiazepine-8-carbonitrile] | 7.03 nM
CCN(CC)Cc1ccc2c(c1)NC(=O)c1c(Nc3cc(O)ccc3C)ccnc1N2 [Example 39, 8-[(Diethylamino)methyl]-4-[(5-hydroxy-2-methylphenyl)amino]-6,11-dihydro-5H-pyrido[2,3-b][1,5]benzodiazepin-5-one] | 1.86 nM
Cc1ccc(O)cc1Nc1ccnc2c1C(=O)Nc1cc(CN3CCCC3)ccc1N2 [Example 40, 4-[(5-Hydroxy-2-methylphenyl)amino]-8-(pyrrolidin-1-ylmethyl)-6,11-dihydro-5H-pyrido[2,3-b][1,5]benzodiazepin-5-one] | 1.8 nM
Cc1ccc(O)cc1Nc1ccnc2c1C(=O)Nc1cc(CN3CCN(C)CC3)ccc1N2 [Example 43, 4-[(5-Hydroxy-2-methylphenyl)amino]-8-[(4-methylpiperazin-1-yl)methyl]-6,11-dihydro-5H-pyrido[2,3-b][1,5]benzodiazepin-5-one] | 2.3 nM
Cc1ccc(O)cc1Nc1ccnc2c1C(=O)Nc1cc(CN3CCN(CCO)CC3)ccc1N2 [Example 44, 8-{[4-(2-Hydroxyethyl)piperazin-1-yl]methyl}-4-[(5-hydroxy-2-methylphenyl)amino]-6,11-dihydro-5H-pyrido[2,3-b][1,5]benzodiazepin-5-one] | 19.8 nM
Cc1cc(F)c(Nc2ccnc3c2C(=O)Nc2cc(CN4CCC(O)CC4)ccc2N3)cc1O [Example 45, 4-[(2-Fluoro-5-hydroxy-4-methylphenyl)amino]-8-[(4-hydroxypiperidin-1-yl)methyl]-6,11-dihydro-5H-pyrido[2,3-b][1,5]benzodiazepin-5-one] | 0.928 nM
Cc1cc(F)c(Nc2ccnc3c2C(=O)Nc2cc(CN4CCN(C)CC4)ccc2N3)cc1O [Example 46, 4-[(2-Fluoro-5-hydroxy-4-methylphenyl)amino]-8-[(4-methylpiperazin-1-yl)methyl]-6,11-dihydro-5H-pyrido[2,3-b][1,5]benzodiazepin-5-one] | 1.52 nM
Cc1cc(F)c(Nc2ccnc3c2C(=O)Nc2cc(CN4CCN(CCO)CC4)ccc2N3)cc1O [Example 47, 4-[(2-Fluoro-5-hydroxy-4-methylphenyl)amino]-8-{[4-(2-hydroxyethyl)piperazin-1-yl]methyl}-6,11-dihydro-5H-pyrido[2,3-b][1,5]benzodiazepin-5-one] | 3.67 nM
Cc1cc(F)c(Nc2ccnc3c2C(=O)Nc2cc(CNC(C)C)ccc2N3)cc1O [Example 48, 4-[(2-Fluoro-5-hydroxy-4-methylphenyl)amino]-8-[(isopropylamino)methyl]-6,11-dihydro-5H-pyrido[2,3-b][1,5]benzodiazepin-5-one] | 1.01 nM
CCCCN(CC)Cc1ccc2c(c1)NC(=O)c1c(Nc3cc(O)c(C)cc3F)ccnc1N2 [Example 53, 8-{[Butyl(ethyl)amino]methyl}-4-[(2-fluoro-5-hydroxy-4-methylphenyl)amino]-6,11-dihydro-5H-pyrido[2,3-b][1,5]benzodiazepin-5-one] | 0.962 nM
CCCC1CCN(Cc2ccc3c(c2)NC(=O)c2c(Nc4cc(O)c(C)cc4F)ccnc2N3)CC1 [Example 54, 4-[(2-Fluoro-5-hydroxy-4-methylphenyl)amino]-8-[(4-propylpiperidin-1-yl)methyl]-6,11-dihydro-5H-pyrido[2,3-b][1,5]benzodiazepin-5-one] | 6.51 nM
Cc1cc(F)c(Nc2ccnc3c2C(=O)Nc2cc(CN4CCC(C)(C)CC4)ccc2N3)cc1O [Example 56, 8-[(4,4-Dimethylpiperidin-1-yl)methyl]-4-[(2-fluoro-5-hydroxy-4-methylphenyl)amino]-6,11-dihydro-5H-pyrido[2,3-b][1,5]benzodiazepin-5-one] | 1.49 nM
Cc1cc(F)c(Nc2ccnc3c2C(=O)Nc2cc(CN4CCC(C)C(O)C4)ccc2N3)cc1O (centres unmarked) [Example 59, 4-[(2-Fluoro-5-hydroxy-4-methylphenyl)amino]-8-[(3-hydroxy-4-methylpiperidin-1-yl)methyl]-6,11-dihydro-5H-pyrido[2,3-b][1,5]benzodiazepin-5-one] | 1.82 nM
Cc1cc(F)c(Nc2ccnc3c2C(=O)Nc2cc(CNCCc4ccncc4)ccc2N3)cc1O [Example 74, 4-[(2-Fluoro-5-hydroxy-4-methylphenyl)amino]-8-({[2-(pyridin-4-yl)ethyl]amino}methyl)-6,11-dihydro-5H-pyrido[2,3-b][1,5]benzodiazepin-5-one] | 0.475 nM
Cc1cc(F)c(Nc2ccnc3c2C(=O)Nc2cc(C(=O)O)ccc2N3)cc1O [Example 79, 4-[(2-Fluoro-5-hydroxy-4-methylphenyl)amino]-5-oxo-6,11-dihydro-5H-pyrido[2,3-b][1,5]benzodiazepine-8-carboxylic acid] | 213 nM
Cc1cc(F)c(Nc2ccnc3c2C(=O)Nc2cc(C(N)=O)ccc2N3)cc1O [Example 80, 4-[(2-Fluoro-5-hydroxy-4-methylphenyl)amino]-5-oxo-6,11-dihydro-5H-pyrido[2,3-b][1,5]benzodiazepine-8-carboxamide] | 7.44 nM
Cc1cc(F)c(Nc2ccnc3c2C(=O)Nc2cc(C(=O)NC4CCCC(O)C4)ccc2N3)cc1O (centres unmarked) [Example 81, 4-[(2-Fluoro-5-hydroxy-4-methylphenyl)amino]-N-(3-hydroxycyclohexyl)-5-oxo-6,11-dihydro-5H-pyrido[2,3-b][1,5]benzodiazepine-8-carboxamide] | 1.31 nM
CCN(CC)C(=O)c1ccc2c(c1)NC(=O)c1c(Nc3cc(O)c(C)cc3F)ccnc1N2 [Example 84, N,N-Diethyl-4-[(2-fluoro-5-hydroxy-4-methylphenyl)amino]-5-oxo-6,11-dihydro-5H-pyrido[2,3-b][1,5]benzodiazepine-8-carboxamide] | 14.6 nM

SMILES | IC50
Cc1cc(F)c(Nc2ccnc3c2C(=O)Nc2cc(C(=O)N4CCOCC4)ccc2N3)cc1O [Example 85, 4-[(2-Fluoro-5-hydroxy-4-methylphenyl)amino]-8-(morpholin-4-ylcarbonyl)-6,11-dihydro-5H-pyrido[2,3-b][1,5]benzodiazepin-5-one] | 13.9 nM
Cc1cc(F)c(Nc2ccnc3c2C(=O)Nc2cc(CN)ccc2N3)cc1O [Example 87, 8-(Aminomethyl)-4-[(2-fluoro-5-hydroxy-4-methylphenyl)amino]-6,11-dihydro-5H-pyrido[2,3-b][1,5]benzodiazepin-5-one] | 1.41 nM
CCN1CCCC1CNCc1ccc2c(c1)NC(=O)c1c(Nc3cc(O)ccc3C)ccnc1N2 (centres unmarked) [Example 92, 8-({[(1-Ethylpyrrolidin-2-yl)methyl]amino}methyl)-4-[(5-hydroxy-2-methylphenyl)amino]-6,11-dihydro-5H-pyrido[2,3-b][1,5]benzodiazepin-5-one] | 5.27 nM
CCC(CC)CNCc1ccc2c(c1)NC(=O)c1c(Nc3cc(O)ccc3C)ccnc1N2 [Example 93] | 4.98 nM
Cc1ccc(O)cc1Nc1ccnc2c1C(=O)Nc1cc(CNCc3cccc(F)c3F)ccc1N2 [Example 94] | 3.52 nM
Cc1ccc(O)cc1Nc1ccnc2c1C(=O)Nc1cc(CNCc3ccc(Cl)nc3)ccc1N2 [Example 95] | 1.95 nM
COc1cccc(CNCc2ccc3c(c2)NC(=O)c2c(Nc4cc(O)ccc4C)ccnc2N3)c1 [Example 96] | 2.1 nM
Cc1ccc(O)cc1Nc1ccnc2c1C(=O)Nc1cc(CNCCn3ccnn3)ccc1N2 [Example 97] | 2.45 nM
Cc1ccc(O)cc1Nc1ccnc2c1C(=O)Nc1cc(CNC3(C)CCS(=O)(=O)C3)ccc1N2 (centres unmarked) [Example 98] | 5.17 nM
Cc1ccc(O)cc1Nc1ccnc2c1C(=O)Nc1cc(CNC3CCOC3)ccc1N2 (centres unmarked) [Example 99] | 2.97 nM
Cc1ccc(O)cc1Nc1ccnc2c1C(=O)Nc1cc(CNC(C)C3CC=CCC3)ccc1N2 (centres unmarked) [Example 100] | 1.66 nM
Cc1ccn(CCCNCc2ccc3c(c2)NC(=O)c2c(Nc4cc(O)ccc4C)ccnc2N3)n1 [Example 101] | 2.98 nM
Cc1ccc(O)cc1Nc1ccnc2c1C(=O)Nc1cc(CN[C@H](C)C3CCCCC3)ccc1N2 [Example 102] | 1.57 nM
CCn1ccc(CNCc2ccc3c(c2)NC(=O)c2c(Nc4cc(O)ccc4C)ccnc2N3)n1 [Example 103] | 3.46 nM
Cc1ccc(O)cc1Nc1ccnc2c1C(=O)Nc1cc(CNc3ccc4[nH]cnc4c3)ccc1N2 [Example 104] | 12.2 nM
Cc1ccc(O)cc1Nc1ccnc2c1C(=O)Nc1cc(CNc3ccn(C)n3)ccc1N2 [Example 105] | 14.6 nM
COc1ccc(NCc2ccc3c(c2)NC(=O)c2c(Nc4cc(O)ccc4C)ccnc2N3)cc1F [Example 107] | 18.4 nM
Cc1ccc(O)cc1Nc1ccnc2c1C(=O)Nc1cc(CNCCN3CCN(C)CC3)ccc1N2 [Example 109] | 3.55 nM
